Experimental data: patent US8404643B2, “Metastin derivatives and use thereof” (priority 2005, dated 2013)
Square brackets hold non-standard residues; d marks the D form. Peptide text beside a SMILES is read from it. * marks the point of attachment. Phe(βS-OH) = N[C@H](C(=O)O)[C@@H](O)c1ccccc1; pY = N[C@@H](Cc1ccc(OP(=O)(O)O)cc1)C(=O)O; Phe(4-Cl) = N[C@@H](Cc1ccc(Cl)cc1)C(=O)O; Pro(4S-NH2) = N[C@@H]1CN[C@H](C(=O)O)C1; Desaminotyrosyl = O=C(CCc1ccc(O)cc1)*; Phe(2-F) = N[C@@H](Cc1ccccc1F)C(=O)O; Arg(Me) = CNC(=N)NCCC[C@H](N)C(=O)O; Hyp = O=C(O)[C@@H]1C[C@@H](O)CN1; azaGly = NNC(=O)O; NHcPr = C1CC1N*

Biological target: T1, hOT7T175 (Homo sapiens, UniProt Q969F8)
T1 construct: expressed in transfected cells
Test: Assay for intracellular Ca ion level-increasing activity using FLIPR
Assay type: cell-based
Conditions: hOT7T175/CHO cells, relative to Metastin (1-54)
Procedure: In accordance with the method described in JPA 2000-312590, the intracellular Ca ion level-increasing activity was measured using FLIPR.
The stable expression cell line hOT7T175 was obtained by transfection of the expression plasmid pAK-rOT175 for animal cells into CHO/dhfr^− cells, using CellPhect Transfection Kit (Amersham Pharmacia Biotech, Inc.). First, 240 μL of Buffer A (attached to CellPhect Transfection Kit) was added to 9.6 μg of plasmid DNA dissolved in 240 μL of distilled water followed by stirring. After the mixture was settled for 10 minutes, 480 μL of Buffer B (attached to CellPhect Transfection Kit) was added to the mixture, which was vigorously stirred to form liposomes containing the DNA. Then, 4×10^5 CHO/dhfr^− cells (obtained from ATCC) were inoculated on a 60 mm Petri dish. After culturing the cells in Ham's F-12 medium (Nissui Seiyaku Co., Ltd.) supplemented with 10% fetal bovine serum (BIO WHITTAKER, Inc.) at 37° C. for 2 days in 5% carbon dioxide gas, […] of the liposomes were dropwise added to the cells on the Petri dish. After culturing the cells at 37° C. for 6 hours in 5% carbon dioxide gas, the cells were washed twice with serum-free Ham's F-12 medium and 3 mL of 15% glycerol was added to the cells on the Petri dish followed by treatment for 2 minutes. The cells were again washed twice with serum-free Ham's F-12 medium followed by incubation in Ham's F-12 medium supplemented with 10% fetal bovine serum at 37° C. for 15 hours in 5% carbon dioxide gas. The cells were dispersed by trypsin treatment to recover from the Petri dish. The recovered cells were inoculated on a 6-well plate in 1.25×10^4 cells/well and incubation was initiated at 37° C. in Dulbecco's modified Eagle medium (DMEM) medium (Nissui Seiyaku Co., Ltd.) containing 10% dialyzed fetal bovine serum (JRH BIOSCIENCES, Inc.) in 5% carbon dioxide gas. The plasmid-transfected CHO transformants grew in the medium but the non-transfected cells gradually died, accordingly the medium was exchanged on Days 1 and 2 after the initiation of incubation to remove the cells died. Approximately 20 colonies of the CHO transformants that kept growing on Days 8 to 10 after the incubation were isolated. From the cells in these colonies, cells showing high reactivity with the ligand peptide metastin (hereinafter merely referred to as hOT7T175/CHO) were selected to provide for the following experiment.
The intracellular Ca ion level-increasing activity of the synthetic peptide in hOT7T175/CHO was determined using FLIPR (Molecular Devices, Inc.).
hOT7T175/CHO was subcultured in DMEM supplemented with 10% dialyzed fetal bovine serum (hereinafter abbreviated as dFBS) (hereinafter referred to as 10% dFBS/DMEM) and provided for the experiment. The hOT7T175/CHO was suspended in 10% dFBS-DMEM in 15×10^4 cells/ml. The suspension was inoculated on a 96-well plate for FLIPR (Black Plate Clear Bottom, Coster, Inc.) at 200 μl/well (3.0×10^4 cells/200 μL/well), followed by incubation at 37° C. overnight in a 5% CO2 incubator (hereinafter referred to as the cell plate). Then, 21 ml of HANKS/HBSS (9.8 g of HANKS, 0.35 g of sodium hydrogencarbonate, 20 ml of 1M HEPES; after adjusting the pH to 7.4 with 1N sodium hydroxide, the mixture was sterilized by filtration), 210 μl of 250 mM Probenecid and 210 μl of fetal bovine serum (FBS) (HANKS/HBSS-Probenecid-FBS) were mixed.
Furthermore, 2 vials of Fluo3-AM (50 μg/vial) were dissolved in 21 μL of dimethylsulfoxide and 21 μL of 20% Pluronic acid. The resulting solution was added to and mixed with 10 ml of the HANKS/HBSS-Probenecid-FBS described above. After the culture medium was removed, the mixture was dispensed onto the cell plate in 100 μl each/well, followed by incubation at 37° C. for an hour in a 5% CO2 incubator (pigment loading). The peptide was dissolved in dimethylsulfoxide in 1×10^−3 M. The peptide solution was diluted with HANKS/HBSS containing 2.5 mM Probenecid, 0.2% BSA and 0.1% CHAPS. […]

T1 sequence (Q969F8 whole entry L364H): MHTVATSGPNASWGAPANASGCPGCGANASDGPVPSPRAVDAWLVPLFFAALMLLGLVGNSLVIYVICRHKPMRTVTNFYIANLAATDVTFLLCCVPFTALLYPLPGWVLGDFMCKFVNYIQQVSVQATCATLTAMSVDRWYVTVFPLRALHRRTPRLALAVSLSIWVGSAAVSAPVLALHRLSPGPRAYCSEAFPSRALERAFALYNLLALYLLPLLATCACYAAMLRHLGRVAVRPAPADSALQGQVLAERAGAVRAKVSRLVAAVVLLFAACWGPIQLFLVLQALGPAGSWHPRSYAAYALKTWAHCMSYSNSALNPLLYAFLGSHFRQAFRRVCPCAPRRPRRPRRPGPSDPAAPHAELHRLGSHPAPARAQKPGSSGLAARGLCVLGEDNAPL

Row | Molecule | Specific Activity: intracellular Ca ion level-increasing activity [specific activity to Metastin (1-54)]
1 | CNC(=N)NCCC[C@H](NC(=O)[C@H](CC(C)C)NC(=O)NNC(=O)[C@H](Cc1ccccc1)NC(=O)[C@@H](NC(=O)[C@H](CC(N)=O)NC(=O)[C@@H](CC(=O)O)NC(=O)[C@@H](Cc1ccc(O)cc1)NC(C)=O)[C@@H](C)O)C(=O)N[C@@H](Cc1c[nH]c2ccccc12)C(N)=O [Compound No. 735, Ac-D-Tyr-D-Asp-Asn-Thr-Phe-AzaGly-Leu-Arg(Me)-Trp-NH2] (Ac-[dY][dD]NTF[azaGly]L[Arg(Me)]W-NH2) | 3.4
2 | CNC(=N)NCCC[C@H](NC(=O)[C@H](CC(C)C)NC(=O)NNC(=O)[C@H](Cc1ccccc1)NC(=O)[C@@H](NC(=O)[C@H](CC(N)=O)NC(=O)[C@@H](NC(=O)[C@@H](Cc1ccc(O)cc1)NC(C)=O)[C@@H](C)O)[C@@H](C)O)C(=O)N[C@@H](Cc1c[nH]c2ccccc12)C(N)=O [Compound No. 772, Ac-D-Tyr-Thr-Asn-Thr-Phe-AzaGly-Leu-Arg(Me)-Trp-NH2] (Ac-[dY]TNTF[azaGly]L[Arg(Me)]W-NH2) | 1.3
3 | Ac-D-Tyr-Tyr(PO3H2)-Asn-Thr-Phe-AzaGly-Leu-Arg(Me)-Trp-NH2 (Ac-[dY][pY]NTF[azaGly]L[Arg(Me)]W-NH2; SMILES CNC(=N)NCCC[C@H](NC(=O)[C@H](CC(C)C)NC(=O)NNC(=O)[C@H](Cc1ccccc1)NC(=O)[C@@H](NC(=O)[C@H](CC(N)=O)NC(=O)[C@H](Cc1ccc(OP(=O)(O)O)cc1)NC(=O)[C@@H](Cc1ccc(O)cc1)NC(C)=O)[C@@H](C)O)C(=O)N[C@@H](Cc1c[nH]c2ccccc12)C(N)=O) [Compound No. 775] | 1.3
4 | CNC(=N)NCCC[C@H](NC(=O)[C@H](CC(C)C)NC(=O)NNC(=O)[C@H](Cc1ccccc1)NC(=O)[C@@H]1C[C@@H](O)CN1C(=O)[C@H](CC(N)=O)NC(=O)[C@@H]1C[C@@H](O)CN1C(=O)[C@@H](Cc1ccc(O)cc1)NC(C)=O)C(=O)N[C@@H](Cc1c[nH]c2ccccc12)C(N)=O [Compound No. 810, Ac-D-Tyr-Hyp-Asn-Hyp-Phe-AzaGly-Leu-Arg(Me)-Trp-NH2] (Ac-[dY][Hyp]N[Hyp]F[azaGly]L[Arg(Me)]W-NH2) | 1.5
5 | CNC(=N)NCCC[C@H](NC(=O)[C@H](CC(C)C)NC(=O)NNC(=O)[C@H](Cc1ccccc1F)NC(=O)[C@@H](NC(=O)[C@H](CC(N)=O)NC(=O)[C@H](Cc1c[nH]c2ccccc12)NC(=O)[C@@H](Cc1ccc(O)cc1)NC(C)=O)[C@@H](C)O)C(=O)N[C@@H](Cc1c[nH]c2ccccc12)C(N)=O [Compound No. 764, Ac-D-Tyr-Trp-Asn-Thr-Phe(2F)-AzaGly-Leu-Arg(Me)-Trp-NH2] (Ac-[dY]WNT[Phe(2-F)][azaGly]L[Arg(Me)]W-NH2) | 1.5
6 | CNC(=N)NCCC[C@H](NC(=O)[C@H](CC(C)C)NC(=O)NNC(=O)[C@@H](NC(=O)[C@@H](NC(=O)[C@H](CC(N)=O)NC(=O)[C@@H]1C[C@@H](O)CN1C(=O)[C@@H](Cc1ccc(O)cc1)NC(C)=O)[C@@H](C)O)[C@@H](O)c1ccccc1)C(=O)N[C@@H](Cc1c[nH]c2ccccc12)C(N)=O [Compound No. 882, Ac-D-Tyr-Hyp-Asn-Thr-erythro-Ser(3Phenyl)-AzaGly-Leu-Arg(Me)-Trp-NH2] (Ac-[dY][Hyp]NT[Phe(βS-OH)][azaGly]L[Arg(Me)]W-NH2) | 0.8
7 | CNC(=N)NCCC[C@H](NC(=O)[C@H](CC(C)C)NC(=O)NNC(=O)[C@H](Cc1ccccc1)NC(=O)[C@@H](NC(=O)[C@H](CCCNC(=N)N)NC(=O)[C@@H]1C[C@@H](O)CN1C(=O)[C@@H](Cc1ccc(O)cc1)NC(C)=O)[C@@H](C)O)C(=O)N[C@@H](Cc1c[nH]c2ccccc12)C(N)=O [Compound No. 861, Ac-D-Tyr-Hyp-Arg-Thr-Phe-AzaGly-Leu-Arg(Me)-Trp-NH2] (Ac-[dY][Hyp]RTF[azaGly]L[Arg(Me)]W-NH2) | 1.4
8 | CNC(=N)NCCC[C@H](NC(=O)[C@H](CC(C)C)NC(=O)NNC(=O)[C@H](Cc1ccccc1)NC(=O)[C@@H](NC(=O)[C@H](CC(N)=O)NC(=O)[C@@H]1C[C@@H](O)CN1C(=O)CCc1ccc(O)cc1)[C@@H](C)O)C(=O)N[C@@H](Cc1c[nH]c2ccccc12)C(N)=O [Compound No. 888, 3-(p-Hydroxyphenyl)propionyl-Hyp-Asn-Thr-Phe-AzaGly-Leu-Arg(Me)-Trp-NH2] (Desaminotyrosyl-[Hyp]NTF[azaGly]L[Arg(Me)]W-NH2) | 1.1
9 | CNC(=N)NCCC[C@H](NC(=O)[C@H](CC(C)C)NC(=O)NNC(=O)[C@H](Cc1ccc(Cl)cc1)NC(=O)[C@@H](NC(=O)[C@H](CC(N)=O)NC(=O)[C@@H](Cc1c[nH]c2ccccc12)NC(=O)[C@@H](Cc1ccc(O)cc1)NC(C)=O)[C@@H](C)O)C(=O)N[C@@H](Cc1c[nH]c2ccccc12)C(N)=O [Compound No. 748, Ac-D-Tyr-D-Trp-Asn-Thr-Phe(4Cl)-AzaGly-Leu-Arg(Me)-Trp-NH2] (Ac-[dY][dW]NT[Phe(4-Cl)][azaGly]L[Arg(Me)]W-NH2) | 0.4
10 | CNC(=N)NCCC[C@H](NC(=O)[C@H](CC(C)C)NC(=O)NNC(=O)[C@H](Cc1ccccc1)NC(=O)[C@@H](NC(=O)[C@H](CC(N)=O)NC(=O)[C@@H]1C[C@H](N)CN1C(=O)[C@@H](Cc1ccc(O)cc1)NC(C)=O)[C@@H](C)O)C(=O)N[C@@H](Cc1c[nH]c2ccccc12)C(N)=O [Compound No. 780, Ac-D-Tyr-Pro(4NH2)-Asn-Thr-Phe-AzaGly-Leu-Arg(Me)-Trp-NH2] (Ac-[dY][Pro(4S-NH2)]NTF[azaGly]L[Arg(Me)]W-NH2) | 2.1
11 | CNC(=N)NCCC[C@H](NC(=O)[C@H](CC(C)C)NC(=O)NNC(=O)[C@H](Cc1ccccc1)NC(=O)[C@@H](NC(=O)[C@H](CC(=O)NC1CC1)NC(=O)[C@@H](Cc1c[nH]c2ccccc12)NC(=O)[C@@H](Cc1ccc(O)cc1)NC(C)=O)[C@@H](C)O)C(=O)N[C@@H](Cc1c[nH]c2ccccc12)C(N)=O [Compound No. 715, Ac-D-Tyr-D-Trp-Asp(NHcPr)-Thr-Phe-AzaGly-Leu-Arg(Me)-Trp-NH2] (Ac-[dY][dW]D(NHcPr)TF[azaGly]L[Arg(Me)]W-NH2) | 1.6
12 | CNC(=N)NCCC[C@H](NC(=O)[C@H](CC(C)C)NC(=O)NNC(=O)[C@H](Cc1ccccc1F)NC(=O)[C@@H](NC(=O)[C@H](CC(N)=O)NC(=O)[C@@H](Cc1c[nH]c2ccccc12)NC(=O)[C@@H](Cc1ccc(O)cc1)NC(C)=O)[C@@H](C)O)C(=O)N[C@@H](Cc1c[nH]c2ccccc12)C(N)=O [Compound No. 749, Ac-D-Tyr-D-Trp-Asn-Thr-Phe(2F)-AzaGly-Leu-Arg(Me)-Trp-NH2] (Ac-[dY][dW]NT[Phe(2-F)][azaGly]L[Arg(Me)]W-NH2) | 0.5
